Assay results as given in ChEMBL document CHEMBL4190241, “Isolation of Premyrsinane, Myrsinane, and Tigliane Diterpenoids from Euphorbia pithyusa Using a Chikungunya Virus Cell-Based Assay and Analogue Annotation by Molecular Networking” (J Nat Prod, 2017).

Columns and labels:
Chikungunya virus = assay: Antiviral activity against Chikungunya virus Indian ocean strain 899 infected in African green monkey Vero A cells assessed as reduction in viral-induced cytopathic effect after 6 to 7 days by MTS/PMS assay; assay type: functional, organism-based; conditions: Indian ocean 899, Vero
[1] = Selectivity index, ratio of CC50 for African green monkey Vero A cells to EC50 for Chikungunya virus Indian ocean strain 899 infected in African green monkey Vero A cells; assay type: toxicity; conditions: read-out: Ratio CC50/EC50
[2] = Cytotoxicity against African green monkey Vero A cells assessed as reduction in cell viability after 6 to 7 days by MTS assay; assay type: cell-based; conditions: chlorocebus sabaeus

SMILES	EC50 (Chikungunya virus) [µM]	selectivity ratio [1]	CC50 [2] [µM]
CC(=O)OCC1=C[C@H]2[C@@H]3C(C)(C)[C@]3(OC(=O)C(C)C(C)C)C[C@@H](C)[C@]2(O)[C@@H]2C=C(C)C(=O)[C@@H]2C1 (stereo partly specified)	> 11	–	–
C=C(C)C1C=C[C@@H](OC(C)=O)[C@@]23CO[C@@](C)([C@H](OC(=O)c4ccccc4)[C@@]4(O)C[C@H](C)[C@H](OC(=O)CC)[C@@H]4[C@H]2OC(C)=O)[C@H]13 (stereo partly specified)	84	1.9	158
CC(=O)OCC1=C[C@H]2[C@@H]3C(C)(C)[C@]3(OC(=O)C(C)C(C)C)C[C@@H](C)[C@]2(O)[C@@H]2C=C(C)C(=O)[C@H]2C1 (stereo partly specified)	4	10.6	42.7
CC(=O)OC[C@]12[C@H](OC(=O)c3ccccc3)[C@H]3[C@@H](OC(C)=O)[C@@H](C)C[C@]3(O)C(=O)[C@@](C)(OC(C)=O)[C@@H]1[C@@H]1[C@H](C[C@H]2OC(C)=O)C1(C)C	78	2.2	171
CCC(=O)O[C@@H]1[C@@H]2[C@@H](OC(=O)c3ccccc3)[C@@]3(COC(C)=O)[C@@H]([C@@H]4[C@H](C[C@H]3OC(C)=O)C4(C)C)[C@](C)(CC(C)=O)C(=O)[C@@]2(O)C[C@@H]1C	> 144	–	–
CCC(=O)O[C@@H]1[C@@H]2[C@@H](OC(=O)c3ccccc3)[C@]3(COC(C)=O)[C@H](O)C[C@H]4[C@@H]([C@H]3[C@](C)(O)C(=O)[C@@]2(OC(C)=O)C[C@@H]1C)C4(C)C	11	5.8	63.5
CCC(C)C(=O)O[C@@H]1[C@H]2[C@@H](OC(C)=O)[C@@H](C)C[C@]2(O)C(=O)[C@@](C)(OC(C)=O)[C@@H]2[C@@H]3[C@H](C[C@@H](OC(C)=O)[C@@]12COC(C)=O)C3(C)C (stereo partly specified)	> 50	< 5	> 157
CCN(CC)CCCC(C)Nc1ccnc2cc(Cl)ccc12 (stereo unspecified) [CHLOROQUINE]	11	–	89
CCC(=O)O[C@@H]1[C@@H]2[C@@H](OC(=O)c3ccccc3)[C@@]3(COC(C)=O)[C@@H]([C@@H]4[C@H](C[C@H]3OC(C)=O)C4(C)C)[C@](C)(OC(=O)c3cccnc3)C(=O)[C@@]2(O)C[C@@H]1C	> 107	< 2.4	> 159
CC(=O)OC[C@]12[C@H](OC(=O)c3ccccc3)[C@H]3[C@@H](OC(C)=O)[C@@H](C)C[C@]3(OC(C)=O)C(=O)[C@@](C)(O)[C@@H]1[C@@H]1[C@H](C[C@H]2OC(C)=O)C1(C)C	> 152	–	–
CCC(=O)O[C@@H]1[C@@H]2[C@@H](OC(=O)C(C)CC)[C@@]3(COC(C)=O)[C@@H]([C@@H]4[C@H](C[C@H]3OC(C)=O)C4(C)C)[C@](C)(OC(C)=O)C(=O)[C@@]2(O)C[C@@H]1C (stereo partly specified)	107	2.2	153
